Results reported in ChEMBL document CHEMBL1144003, “Trypanocidal activity of a new pterocarpan and other secondary metabolites of plants from Northeastern Brazil flora” (Bioorg Med Chem, 2008).
Values after ≈ are worked out from the molar mass of the structure shown.

Columns and labels:
PBL = test: Cytotoxicity against human PBL cells after 72 hrs by alamar blue assay; format: cell-based
Trypanosoma cruzi = test: Trypanocidal activity against Trypanosoma cruzi Berenice after 72 hrs; format: functional, organism-based
CCRF-CEM = test: Antiproliferative activity against human CEM cells; format: functional, cell-based
HCT-8 = test: Antiproliferative activity against human HCT8 cells; format: functional, cell-based
B16 = test: Antiproliferative activity against mouse B16 cells; format: functional, cell-based
HL-60 = test: Antiproliferative activity against human HL60 cells; format: functional, cell-based

Structure (SMILES) | IC50 (PBL) [µg/mL] | IC50 (Trypanosoma cruzi) [µg/mL] | also measured
CC(C)=CCC/C(C)=C/Cc1c(O)ccc(C(=O)/C=C/c2ccc(O)c(O)c2)c1O | 23 (≈ 56.4 µM) | 10.6 (≈ 25.9 µM) | 
CC(C)=CCc1c(O)ccc2c1OC[C@H]1c3cc4c(cc3O[C@@H]21)OCO4 | > 50 | 13.3 (≈ 37.7 µM) | 
CC(C)=CCC/C(C)=C/Cc1cc2c(cc1O)OC[C@H]1c3cc4c(cc3O[C@@H]21)OCO4 | > 50 | 12.2 (≈ 29 µM) | 
COC1=C(OC)C(=O)C2=C(C[C@H]3[C@](C)(C2)C[C@@H]2C[C@@]23C)C1=O (relative stereo) | 28.4 (≈ 93.8 µM) | 1.3 (≈ 4.3 µM) | 
COc1cccc2c1C(=O)c1c(O)c3c(c(O)c1C2=O)C[C@@](O)(C(=O)CO)C[C@@H]3O[C@H]1C[C@H](N)[C@H](O)[C@H](C)O1 [DOXORUBICIN] | 0.97 (≈ 1.78 µM) |  | 
C[C@@]12C[C@H]3OC(=O)[C@@H]1CO[C@]14O[C@]5([C@H]2C1=O)[C@@](O)(CC[C@H]1[C@H]4C[C@H]2O[C@]24CC=CC(=O)[C@]14C)C(=O)O[C@@]35C [PHYSALIN F] | 4.23 (≈ 8.03 µM) | 9.4 (≈ 17.9 µM) | IC50 (CCRF-CEM): 0.5 µg/mL (≈ 0.95 µM); IC50 (HCT-8): 0.5 µg/mL (≈ 0.95 µM); IC50 (B16): 0.5 µg/mL (≈ 0.95 µM); IC50 (HL-60): 0.5 µg/mL (≈ 0.95 µM)
CC1=C(C)C(=O)O[C@@H]([C@]2(C)OC(=O)[C@]34CC[C@H]5[C@@H](C[C@H]6O[C@]67[C@@H](O)C=CC(=O)[C@]57C)[C@@H]3CC[C@H]24)C1 [WITHAPHYSALIN M] |  | 0.7 (≈ 1.45 µM) | 
CC1=C(C)C(=O)O[C@@H]([C@]2(C)OC(=O)[C@]34CC[C@H]5[C@@H](C[C@H]6O[C@]67[C@@H](O)CCC(=O)[C@]57C)[C@@H]3CC[C@H]24)C1 [WITHAPHYSALIN N] |  | 6.4 (≈ 13.2 µM) | 
CCOC1O[C@@](C)([C@H]2CC(C)=C(C)C(=O)O2)[C@H]2CC[C@H]3[C@@H]4C[C@H]5O[C@]56[C@@H](O)C=CC(=O)[C@]6(C)[C@H]4CC[C@]123 (stereo partly drawn) [WITHAPHYSALIN O] |  | 0.3 (≈ 0.585 µM) | 
